{"source": "patent US20230372263A1", "about": "“METHODS AND COMPOSITIONS FOR TREATING AMYOTROPHIC LATERAL SCLEROSIS” (Amylyx Pharmaceuticals, Inc., priority 2022, published 2023)", "assay": "Phase II AMX3500 (CENTAUR) sparse sampling: steady-state plasma concentrations of TURSO/TUDCA, UDCA, GUDCA in ALS patients", "format": "in vivo, human", "conditions": "patients; comparison across studies", "description": "• 1. […] Treatment is administered as one sachet daily for the initial 3 weeks and then increased if tolerated to one sachet twice daily. […] Sampling times are randomly assigned to occur at either 1 or 4 hours post-dose at the 12 week visit and the other time at the 24 week visit. • Treatment duration: 24 weeks • 2.\n• Protocol AMX3500: sparse sampling in 87 subjects with ALS. Approximately 2 samples are collected for each subject, 1 or 4 hours post dose following 12 and 24 weeks of treatment. • Protocol A35-002: rich sampling in 14 healthy adults. Approximately 21 samples are collected over 24 hours for each subject on two occasions, once following a high fat meal and the other under fasting conditions.\nSubjects were advised to take the drug before a meal. […] Referred to as protocol 3500.\nA study was carried out to examine plasma concentration data in various subgroups for the protocol AMX3500 Phase 2 study. This example summarizes plasma concentrations of TUDCA and 2 metabolites, also related acids, UDCA, the de-conjugated TUDCA metabolite, and GUDCA, the glycine conjugate of UDCA.\nFor each of the 2 treatment arms (treatment and placebo), subjects were further divided into 2 sample sequence groups for schedule of pharmacokinetic measurements: • 1. 1 hour post-dose for the Week 12 visit and 4 hours post-dose for the Week 24 visit • 2. 4 hours post-dose for the Week 12 visit and 1 hour post-dose for the Week 24 visit\nTwenty-four distinct medication descriptions were identified as containing antibiotics. Dates of antibiotic use were compared to dates of visits and if the antibiotic use date range contained the visit date, then that visit was flagged for that subject's data for antibiotic use. […] These antibiotics could hypothetically be in a subject's body still if this event occurred. However, it was observed that only a small number of subjects took antibiotics near to visit dates but not overlapping visit dates. In other cases, subjects were taking antibiotics on the date of one visit but not the others. Some subjects are therefore in both categories of antibiotic use and nonuse, though no individual visits for a subject are counted in both categories at the same time.\nSubjects whose race were recorded as “Black” or “African American” were evaluated according to the standard Glomerular Filtration Rate (eGFR) rating for that race. The other standard eGFR rating used, sometimes referred to as a standard for people who are White, was applied to subjects of all other races. These rates were analyzed as continuous in mL/min/1.73 m2 units and as the following categories: • 1. Less than 90 mL/min/1.73 m^2 • 2. Equal to or greater than 90 mL/min/1.73 m^2\nAge was converted from a continuous variable to 2 categories: • 1. As old or older than 65 years old • 2. Younger than 65 years old\nAll boxplots boxes are bounded at the 25th and 75th percentile, with whiskers at 10th and 90th percentiles, outliers beyond that as points, the black line as median, and red line as mean."}
{"smiles": "O=C(O)Cc1ccccc1", "note": "[PAA, phenylacetate]", "values": [{"measurement": "accumulation in plasma after once- or twice-daily dosing", "value": "no accumulation"}]}
